Test results taken from publication PMC9937993, “Structures of the NDP-pyranose mutase belonging to glycosyltransferase family 75 reveal residues important for Mn^2+ coordination and substrate binding” (The Journal of Biological Chemistry, 2023).
pKd: −log10 of the molar value.

Tests used:
Type in all cases: binding
[1] = target: MtdL (Marinactinospora thermotolerans, UniProt G8HX37, T13P); experiment: ITC
[2] = target: T1, MtdL (Marinactinospora thermotolerans, UniProt G8HX37); experiment: ITC; crystal structure of GDP·Mn2+·MtdL at […] Å
T1 sequence (G8HX37 1-376): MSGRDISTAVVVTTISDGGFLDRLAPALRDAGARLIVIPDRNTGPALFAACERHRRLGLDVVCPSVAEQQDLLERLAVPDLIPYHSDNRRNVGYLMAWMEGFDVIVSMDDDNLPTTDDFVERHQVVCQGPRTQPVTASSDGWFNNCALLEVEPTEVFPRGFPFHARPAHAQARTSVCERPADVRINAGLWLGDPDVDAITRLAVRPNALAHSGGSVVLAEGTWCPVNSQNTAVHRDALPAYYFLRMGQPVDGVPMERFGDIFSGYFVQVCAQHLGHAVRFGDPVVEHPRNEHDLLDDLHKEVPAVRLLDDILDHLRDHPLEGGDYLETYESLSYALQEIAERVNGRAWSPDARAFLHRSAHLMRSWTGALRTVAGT

[3] = target: MtdL (Marinactinospora thermotolerans, UniProt G8HX37, N42D); experiment: ITC

## Nc1nc2c(ncn2[C@@H]2O[C@H](COP(=O)(O)OP(=O)(O)O)[C@@H](O)[C@H]2O)c(=O)[nH]1 [GDP]
[1]
  pKd: ~5.25
[2]
  pKd: ~6.70
[3]
  pKd: ~5.91
